According to ChEMBL document CHEMBL5131406, “New bis- and tetrakis-1,2,3-triazole derivatives: Synthesis, DNA cleavage, molecular docking, antimicrobial, antioxidant activity and acid dissociation constants” (2022):
Converted amounts (≈) assume the structure as drawn. The source made the active and inactive calls. No cut-off for these calls is given here.

Key:
Legionella pneumophila = assay: Antibacterial activity against Legionella pneumophila subsp. pneumophila; type: functional
Staphylococcus aureus = assay: Antibacterial activity against Staphylococcus aureus; type: functional
Enterococcus hirae = assay: Antibacterial activity against Enterococcus hirae; type: functional
[1] = Antioxidant activity assessed as DPPH radical scavenging activity at 10 to 200 ug/ml; type: functional; conditions: dose 10-200 µg/ml
Pseudomonas aeruginosa = assay: Antibacterial activity against Pseudomonas aeruginosa; type: functional
Candida tropicalis = assay: Antifungal activity against Candida tropicalis; type: functional
DNA = assay: Induction of Escherichia coli supercoiled pBR322 DNA cleavage assessed as increase in formation of linear form of DNA at 250 ug/ml by agarose gel electrophoresis; type: nucleic-acid assay; conditions: dose 250.0 µg/ml
[2] = Antioxidant activity assessed as ferrous ion chelating activity at 200 ug/ml; type: functional; conditions: dose 200.0 µg/ml
Candida albicans = assay: Antifungal activity against Candida albicans; type: functional
Bacillus cereus = assay: Antibacterial activity against Bacillus cereus; type: functional
Escherichia coli = assay: Antibacterial activity against Escherichia coli; type: functional
[3] = Antioxidant activity assessed as ferrous ion chelating activity at 10 ug/ml; type: functional; conditions: dose 10.0 µg/ml

| Structure (SMILES) | MIC (Legionella pneumophila) | MIC (Staphylococcus aureus) | MIC (Enterococcus hirae) | Activity [1] | MIC (Pseudomonas aeruginosa) | MIC (Candida tropicalis) | Activity (DNA) | Activity [2] | MIC (Candida albicans) | MIC (Bacillus cereus) | MIC (Escherichia coli) | Activity [3] |
| --- | --- | --- | --- | --- | --- | --- | --- | --- | --- | --- | --- | --- |
| O=C(Cn1cc(-c2ccccc2)nn1)Nc1ccc(NC(=O)Cn2cc(-c3ccccc3)nn2)cc1 | 16 µg/mL (≈ 33.4 µM) | 64 µg/mL (≈ 134 µM) | 128 µg/mL (≈ 267 µM) | Active | 64 µg/mL (≈ 134 µM) | 32 µg/mL (≈ 66.9 µM) | Active | 40.1% | 64 µg/mL (≈ 134 µM) | 64 µg/mL (≈ 134 µM) | 64 µg/mL (≈ 134 µM) | – |
| O=C(Cn1cc(CCc2ccccc2)nn1)Nc1ccc(NC(=O)Cn2cc(CCc3ccccc3)nn2)cc1 | 64 µg/mL (≈ 120 µM) | 32 µg/mL (≈ 59.9 µM) | 64 µg/mL (≈ 120 µM) | Active | 16 µg/mL (≈ 29.9 µM) | 64 µg/mL (≈ 120 µM) | Active | 41.4% | 64 µg/mL (≈ 120 µM) | 32 µg/mL (≈ 59.9 µM) | 128 µg/mL (≈ 239 µM) | – |
| O=C(Cn1cc(CCn2cc(CCBr)nn2)nn1)Nc1ccc(NC(=O)Cn2cc(CCn3cc(CCBr)nn3)nn2)cc1 | 8 µg/mL (≈ 11 µM) | 64 µg/mL (≈ 87.6 µM) | 32 µg/mL (≈ 43.8 µM) | Active | 64 µg/mL (≈ 87.6 µM) | 32 µg/mL (≈ 43.8 µM) | Active | 45.6% | 8 µg/mL (≈ 11 µM) | 64 µg/mL (≈ 87.6 µM) | 128 µg/mL (≈ 175 µM) | – |
| O=C(Cn1cc(CCn2cc(-c3ccccc3)nn2)nn1)Nc1ccc(NC(=O)Cn2cc(CCn3cc(-c4ccccc4)nn3)nn2)cc1 | 32 µg/mL (≈ 47.9 µM) | 64 µg/mL (≈ 95.7 µM) | 16 µg/mL (≈ 23.9 µM) | Active | 64 µg/mL (≈ 95.7 µM) | 64 µg/mL (≈ 95.7 µM) | Active | 27.1% | 64 µg/mL (≈ 95.7 µM) | 128 µg/mL (≈ 191 µM) | 128 µg/mL (≈ 191 µM) | – |
| O=C(Cn1cc(CCn2cc(CC3CCCCC3)nn2)nn1)Nc1ccc(NC(=O)Cn2cc(CCn3cc(CC4CCCCC4)nn3)nn2)cc1 | 32 µg/mL (≈ 45.1 µM) | 64 µg/mL (≈ 90.3 µM) | 16 µg/mL (≈ 22.6 µM) | Active | 64 µg/mL (≈ 90.3 µM) | 4 µg/mL (≈ 5.64 µM) | Active | 48.9% | 8 µg/mL (≈ 11.3 µM) | 64 µg/mL (≈ 90.3 µM) | 128 µg/mL (≈ 181 µM) | – |
| CCOC(=O)c1cn(CCc2cn(CC(=O)Nc3ccc(NC(=O)Cn4cc(CCn5cc(C(=O)OCC)nn5)nn4)cc3)nn2)nn1 | 32 µg/mL (≈ 48.4 µM) | 32 µg/mL (≈ 48.4 µM) | 64 µg/mL (≈ 96.9 µM) | Active | 64 µg/mL (≈ 96.9 µM) | 64 µg/mL (≈ 96.9 µM) | Active | 33.5% | 128 µg/mL (≈ 194 µM) | 32 µg/mL (≈ 48.4 µM) | 128 µg/mL (≈ 194 µM) | – |
| O=C(Cn1cc(C2CCCC2)nn1)Nc1ccc(NC(=O)Cn2cc(C3CCCC3)nn2)cc1 | 32 µg/mL (≈ 69.2 µM) | 64 µg/mL (≈ 138 µM) | 32 µg/mL (≈ 69.2 µM) | Active | 64 µg/mL (≈ 138 µM) | 32 µg/mL (≈ 69.2 µM) | Active | 67.1% | 64 µg/mL (≈ 138 µM) | 64 µg/mL (≈ 138 µM) | 128 µg/mL (≈ 277 µM) | 20.6% |
| [N-]=[N+]=NCCc1cn(CC(=O)Nc2ccc(NC(=O)Cn3cc(CCN=[N+]=[N-])nn3)cc2)nn1 | 32 µg/mL (≈ 68.9 µM) | 64 µg/mL (≈ 138 µM) | 32 µg/mL (≈ 68.9 µM) | Active | 64 µg/mL (≈ 138 µM) | 16 µg/mL (≈ 34.4 µM) | Active | 52.8% | 8 µg/mL (≈ 17.2 µM) | 64 µg/mL (≈ 138 µM) | 32 µg/mL (≈ 68.9 µM) | – |
| O=C(Cn1cc(C2CC2)nn1)Nc1ccc(NC(=O)Cn2cc(C3CC3)nn2)cc1 | 128 µg/mL (≈ 315 µM) | 128 µg/mL (≈ 315 µM) | 64 µg/mL (≈ 157 µM) | Active | 128 µg/mL (≈ 315 µM) | 64 µg/mL (≈ 157 µM) | Active | 76.5% | 128 µg/mL (≈ 315 µM) | 64 µg/mL (≈ 157 µM) | 64 µg/mL (≈ 157 µM) | – |
